One may read the IC50 as the concentration needed to halve the response being measured.

We go through 33 molecules from patent US10329270B2, “Heteroaryl compounds as BTK inhibitors and uses thereof” (Merck Patent GmbH, priority 2013, dated 2019).

The target of this experiment is T1, full-length human BTK (Homo sapiens, UniProt Q06187).
T1 construct: 2.5× stocks of full-length human BTK (08-080); purchased CarnaBio USA, Inc., Natick, Mass; 08-080
Kind of experiment: Assay A: BTK IC50 Enzyme Assay (microfluidic off-chip mobility shift kinase assay). The note with it: full-length human BTK, kinKDR peptide substrate, incubated 90 min at 27 C; read-out: Assay A (Time Dependent BTK Enzyme Assay IC50). Type of experiment: biochemical. How it is done: Assay A: BTK IC50 Enzyme Assay
The following describes a microfluidic, off-chip mobility shift kinase assay used to measure inherent potency of compounds against BTK enzyme. Compounds described by embodiments of the present invention were assayed using this protocol and the data from the same is recorded in Table 2 within the column labeled: “Time Dependent BTK Enzyme Assay IC50”.
Stopped reactions were monitored at −2 PSI, −3000 V/−700 V in a LabChip 3000 plate reader from Caliper Life Sciences, a PerkinElmer Company (Hopkinton, Mass.), and the activity was measured by off-chip mobility shift assay measuring the charge/mass difference between substrate and product resulting from peptide phosphorilation. IC50 and efficacy were determined by plotting log [Inhibitor] vs. % Activity in GeneData Screener (Basel, Switzerland). […] I<1 uM and II>1 uM.

T1 sequence (Q06187 whole entry): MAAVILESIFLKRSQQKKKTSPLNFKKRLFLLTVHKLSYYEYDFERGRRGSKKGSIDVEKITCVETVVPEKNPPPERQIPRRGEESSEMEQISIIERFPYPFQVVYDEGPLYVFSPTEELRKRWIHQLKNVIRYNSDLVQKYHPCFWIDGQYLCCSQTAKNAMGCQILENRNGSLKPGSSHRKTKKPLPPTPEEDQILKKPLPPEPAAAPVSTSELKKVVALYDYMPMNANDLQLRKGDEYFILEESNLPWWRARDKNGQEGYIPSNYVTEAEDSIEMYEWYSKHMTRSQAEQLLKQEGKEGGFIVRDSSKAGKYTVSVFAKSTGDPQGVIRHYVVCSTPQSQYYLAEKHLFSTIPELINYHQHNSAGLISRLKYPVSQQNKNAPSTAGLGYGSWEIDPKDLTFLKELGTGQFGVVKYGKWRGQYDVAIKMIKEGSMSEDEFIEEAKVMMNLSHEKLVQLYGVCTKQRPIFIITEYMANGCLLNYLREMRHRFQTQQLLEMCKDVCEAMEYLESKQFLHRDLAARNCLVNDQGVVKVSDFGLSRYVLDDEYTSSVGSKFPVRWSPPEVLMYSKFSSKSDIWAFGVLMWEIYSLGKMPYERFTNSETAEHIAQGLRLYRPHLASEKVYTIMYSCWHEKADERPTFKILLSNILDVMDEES

Turning to `C=CC(=O)N[C@H]1CCN(c2ccc(C(N)=O)c(Nc3cccc(C)c3)n2)C1` [Compound 57, 6-((S)-3-Acryloylamino-pyrrolidin-1-yl)-2-m-tolylamino-nicotinamide], the IC50 was less than 100 nM. Regarding `C=CC(=O)N1CCN(c2ccc(C(N)=O)c(N(C)c3cccc(C)c3)n2)CC1` [Compound 58, 6-(4-Acryloyl-piperazin-1-yl)-2-(methyl-m-tolyl-amino)-nicotinamide], the IC50 fell in the range of 100 to 1000 nM.

For `C=CC(=O)N[C@H]1CCN(c2ccc(C(N)=O)c(Nc3ccc(NC(=O)C(C)(C)C)cc3)n2)C1` [Compound 59, 6-((S)-3-Acryloylamino-pyrrolidin-1-yl)-2-[4-(2,2-dimethyl-propionylamino)-phenylamino]-nicotinamide], the IC50 was 100 to 1000 nM. Turning to `C=CC(=O)N[C@H]1CCN(c2ccc(C(N)=O)c(Nc3ccc(F)c(C)c3)n2)C1` [Compound 60, 6-((S)-3-Acryloylamino-pyrrolidin-1-yl)-2-(4-fluoro-3-methyl-phenylamino)-nicotinamide], the IC50 fell in the range of 100 to 1000 nM.

As to `C=CC(=O)N[C@@H]1CCN(c2ccc(C(N)=O)c(N)n2)C1` [Compound 61, 6-((R)-3-Acryloylamino-pyrrolidin-1-yl)-2-amino-nicotinamide], the IC50 fell in the range of 1000 to 5000 nM. The same measure for `C=CC(=O)N[C@H]1CCN(c2ccc(C(N)=O)c(NC3CCN(C)CC3)n2)C1` [Compound 62, 6-((S)-3-Acryloylamino-pyrrolidin-1-yl)-2-(1-methyl-piperidin-4-ylamino)-nicotinamide]: greater than 5000 nM; for `C=CC(=O)N1CCC(c2ccc(C(N)=O)c(Nc3ccc(C(=O)N4CCN(C(=O)CCCCNC(=S)Nc5ccc(C6=C7C(C)=CC(C)=[N+]7[B-](F)(F)n7c(C)cc(C)c76)cc5)CC4)cc3)n2)CC1` [Compound 63, 1′-Acryloyl-6-{4-[4-(5-{3-[4-(4,4-difluoro-1,3,5,7-tetramethyl-3a,4alambda4-diaza-4lambda4-bora-s-indacen-8-yl)-phenyl]-thioureido}-pentanoyl)-piperazine-1-carbonyl]-phenylamino}-1′,2′,3′,4′,5′,6′-hexahydro-[2,4′]bipyridinyl-5-carboxylic acid amide]: less than 100 nM; for `C=CC(=O)N1CCC(c2ccc(C(N)=O)c(Oc3ccc(Oc4ccccc4)cc3)n2)CC1` [Compound 64, 6-(1-acryloylpiperidin-4-yl)-2-(4-phenoxyphenoxy)nicotinamide]: less than 100 nM. Under `C=CC(=O)N1C[C@@H]2C[C@H]1CN2c1ccc(C(N)=O)c(Oc2ccc(Oc3ccc(F)cc3F)cc2)n1` [Compound 66, 6-((1S,4S)-5-Acryloyl-2,5-diaza-bicyclo[2.2.1]hept-2-yl)-2-[4-(2,4-difluoro-phenoxy)-phenoxy]-nicotinamide] stands less than 100 nM; under `C=CC(=O)N1CCC(c2ccc(C(N)=O)c(Oc3ccc(Oc4ccccc4)cc3)n2)C1` (stereo not drawn) [Compound 70, 6-(1-acryloylpyrrolidin-3-yl)-2-(4-phenoxyphenoxy)nicotinamide], less than 100 nM; under `C=CC(=O)N1C2CCC1CC(c1ccc(C(N)=O)c(Oc3ccc(Oc4ccccc4)cc3)n1)C2` (stereo not drawn) [Compound 71, 6-(8-Acryloyl-8-aza-bicyclo[3.2.1]oct-3-yl)-2-(4-phenoxy-phenoxy)-nicotinamide], less than 100 nM. Under `C=CC(=O)N[C@H]1CCN(c2ccc(C(N)=O)c(Oc3ccc(Oc4cccc(F)c4)cc3)n2)C1` [Compound 73, (S)-6-(3-acrylamidopyrrolidin-1-yl)-2-(4-(3-fluorophenoxy)phenoxy)nicotinamide] stands less than 100 nM; under `CN(C)C/C=C/C(=O)N1CCC(c2ccc(C(N)=O)c(Oc3ccc(Oc4ccccc4)cc3)n2)CC1` [Compound 76, 1′-((E)-4-Dimethylamino-but-2-enoyl)-6-(4-phenoxy-phenoxy)-1′,2′,3′,4′,5′,6′-hexahydro-[2,4′]bipyridinyl-5-carboxylic acid amid], less than 100 nM. `C=CC(=O)N1CCC(O)(c2ccc(C(N)=O)c(Oc3ccc(Oc4ccccc4)cc3)n2)C(O)C1` (stereo not drawn) [Compound 77, 1′-Acryloyl-3′,4′-dihydroxy-6-(4-phenoxy-phenoxy)-1′,2′,3′,4′,5′,6′-hexahydro-[2,4′]bipyridinyl-5-carboxylic acid amide]: the IC50 was less than 100 nM. Under `C=CC(=O)N[C@H]1CCN(c2ccc(C(N)=O)c(Oc3ccc(Oc4cccc(C#N)c4)cc3)n2)C1` [Compound 79, (S)-6-(3-acrylamidopyrrolidin-1-yl)-2-(4-(3-cyanophenoxy)phenoxy)nicotinamide] stands less than 100 nM; under `C=CC(=O)Nc1cccc(-c2ccc(C(N)=O)c(Oc3ccc(Oc4ccccc4)cc3)n2)c1` [Compound 80, 6-(3-acrylamidophenyl)-2-(4-phenoxyphenoxy)nicotinamide], less than 100 nM. Turning to `C=CC(=O)N1CCC(c2ccc(C(N)=O)c(Oc3ccc(Oc4ccc(C)cc4)cc3)n2)C1` (stereo not drawn) [Compound 81, 6-(1-acryloylpyrrolidin-3-yl)-2-(4-(p-tolyloxy)phenoxy)nicotinamide], the IC50 is less than 100 nM. Regarding `C=CC(=O)N[C@H]1CCN(c2ccc(C(N)=O)c(Oc3ccc(Oc4cccc(C(F)(F)F)c4)cc3)n2)C1` [Compound 82, (S)-6-(3-acrylamidopyrrolidin-1-yl)-2-(4-(3-(trifluoromethyl)phenoxy)phenoxy)nicotinamide], the IC50 was less than 100 nM.

In the case of `C=CC(=O)N1CCC=C(c2ccc(C(N)=O)c(Oc3ccc(Oc4ccccc4)cc3)n2)C1` [Compound 83, 1′-Acryloyl-6-(4-phenoxy-phenoxy)-1′,2′,5′,6′-tetrahydro-[2,3′]bipyridinyl-5-carboxylic acid amide], the IC50 was less than 100 nM. Under `C=CC(=O)NCc1cncc(-c2ccc(C(N)=O)c(Oc3ccc(Oc4ccccc4)cc3)n2)c1` [Compound 84, 5′-(acrylamidomethyl)-6-(4-phenoxyphenoxy)-[2,3′-bipyridine]-5-carboxamide] stands less than 100 nM; under `C=CC(=O)N[C@H]1CCN(c2ccc(C(N)=O)c(Oc3ccc(Oc4ccc(C)cc4)cc3)n2)C1` [Compound 85, (S)-6-(3-acrylamidopyrrolidin-1-yl)-2-(4-(p-tolyloxy)phenoxy)nicotinamide], 100 to 1000 nM. Take `NC(=O)c1ccc(C2CCN(C(=O)/C=C/CN3CCN(CCNC(=O)CCCC[C@@H]4SC[C@@H]5NC(=O)N[C@@H]54)CC3)CC2)nc1Oc1ccc(Oc2ccccc2)cc1` [Compound 86, 6-(1-((E)-4-(4-(2-(5-((3aS,4S,6aR)-2-oxohexahydro-1H-thieno[3,4-d]imidazol-4-yl)pentanamido)ethyl)piperazin-1-yl)but-2-enoyl)piperidin-4-yl)-2-(4-phenoxyphenoxy)nicotinamide]: the IC50 lay within 100 to 1000 nM. Turning to `C=CC(=O)N1CCCC(c2ccc(C(N)=O)c(Oc3ccc(Oc4ccccc4)cc3)n2)C1` (stereo not drawn) [Compound 87, 1′-Acryloyl-6-(4-phenoxy-phenoxy)-1′,2′,3′,4′,5′,6′-hexahydro-[2,3′]bipyridinyl-5-carboxylic acid amide], the IC50 lay in the range of 100 to 1000 nM. As to `C=CC(=O)N1CC=C(c2ccc(C(N)=O)c(Oc3ccc(Oc4ccccc4)cc3)n2)C1` [Compound 88, 6-(1-acryloyl-2,5-dihydro-1H-pyrrol-3-yl)-2-(4-phenoxyphenoxy)nicotinamide], the IC50 lay in the range of 100 to 1000 nM.

`C=CC(=O)NCc1ccc(-c2ccc(C(N)=O)c(Oc3ccc(Oc4ccccc4)cc3)n2)cc1` [Compound 89, 6-(4-(acrylamidomethyl)phenyl)-2-(4-phenoxyphenoxy)nicotinamide]: the IC50 fell in the range of 100 to 1000 nM. The same measure for `C=CC(=O)N[C@H]1CCN(c2ccc(C(N)=O)c(Oc3ccc(OCc4ccccc4)cc3)n2)C1` [Compound 90, (S)-6-(3-acrylamidopyrrolidin-1-yl)-2-(4-(benzyloxy)phenoxy)nicotinamide]: 100 to 1000 nM.

On to `C=CC(=O)N[C@H]1CCN(c2ccc(C(N)=O)c(Oc3cccnc3)n2)C1` [Compound 92, 6-((S)-3-Acryloylamino-pyrrolidin-1-yl)-2-(pyridin-3-yloxy)-nicotinamide], for which the IC50 is 100 to 1000 nM.

In the case of `CC(C)=CC(=O)C1CCN(c2ccc(C(N)=O)c(Oc3ccc(Oc4ccccc4)cc3)n2)C1` (stereo not drawn) [Compound 93, 6-[3-(3-Methyl-but-2-enoyl)-pyrrolidin-1-yl]-2-(4-phenoxy-phenoxy)-nicotinamide], the IC50 fell in the range of 100 to 1000 nM. Under `C=CC(=O)N[C@H]1CCN(c2ccc(C(N)=O)c(Oc3ccc(NC(=O)c4ccccc4)cc3)n2)C1` [Compound 95, (S)-6-(3-acrylamidopyrrolidin-1-yl)-2-(4-benzamidophenoxy)nicotinamide] stands 100 to 1000 nM; under `C=CC(=O)N[C@H]1CCN(c2ccc(C(N)=O)c(Oc3ccc(C(=O)Nc4ccccc4)cc3)n2)C1` [Compound 96, (S)-6-(3-acrylamidopyrrolidin-1-yl)-2-(4-(phenylcarbamoyl)phenoxy)nicotinamide], 1000 to 5000 nM. Under `C=CC(=O)N[C@H]1CCN(c2ccc(C(N)=O)c(Oc3cnn(Cc4ccccc4)c3)n2)C1` [Compound 97] stands 1000 to 5000 nM; under `C=CC(=O)NCc1cccc(-c2ccc(C(N)=O)c(Oc3ccc(Oc4ccccc4)cc3)n2)c1` [Compound 98, 6-(3-(acrylamidomethyl)phenyl)-2-(4-phenoxyphenoxy)nicotinamide], 1000 to 5000 nM. Take `C=CC(=O)N1CCC(c2ccc(C(N)=O)c(Oc3ccc(NC(=O)c4ccccc4)cc3)n2)C1` (stereo not drawn) [Compound 99, 6-(1-acryloylpyrrolidin-3-yl)-2-(4-benzamidophenoxy)nicotinamide]: the IC50 fell in the range of 1000 to 5000 nM.
